# Patent publication US12558428B2, “Heterobifunctional compounds and their use in treating disease” (Halda Therapeutics OpCo, Inc., priority 2024, dated 2026)
# Tested on: T-Rex 293 cells having increased expression of estrogen receptor alpha protein
# Test: Cellular growth inhibition assay, T-Rex 293 cells, (+) doxycycline
# Format: cell-based
# Settings: T-REx-293, 72 h, Table 7-A; T-Rex 293 cells with doxycycline (increased ERα expression); 72 hours; CellTiter-Glo; read-out: (+) Dox GI50
# Method in brief: (§1)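 Growth of a doxycycline-inducible ERα T-Rex 293 clone, induced or not with 3 ng/mL doxycycline, was followed for 72 h with test compound in hormone-depleted medium. CellTiter-Glo luminescence gave GI50.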
row,Structure (SMILES),GI50
1,Cc1sc2c(c1C)C(c1ccc(N3CC(CN4CC(CN5CC(c6ccc(C7=C(c8ccccc8)CCCc8cc(C(=O)O)ccc87)cc6)C5)C4)C3)cc1)=N[C@@H](C)c1nnc(C)n1-2 [IV-22],< 50 nM
2,Cc1sc2c(c1C)C(c1ccc(N3CC(CC4CN(CC5CN(c6ccc(C7=C(c8ccccc8)CCCc8cc(C(=O)O)ccc87)cc6)C5)C4)C3)cc1)=N[C@@H](C)c1nnc(C)n1-2 [IV-23],< 50 nM
3,Cc1sc2c(c1C)C(c1ccc(N3CC(C[C@H]4CC[C@H](CN5CC(c6ccc(C7=C(c8ccccc8)CCCc8cc(C(=O)O)ccc87)cc6)C5)CC4)C3)cc1)=N[C@@H](C)c1nnc(C)n1-2 [IV-24],< 50 nM
4,Cc1sc2c(c1C)C(c1ccc(N3CC(CN4CCN(CC5CN(c6ccc(C7=C(c8ccc(F)cc8F)CCCc8cc(C(=O)O)ccc87)cc6)C5)CC4)C3)cc1)=N[C@@H](C)c1nnc(C)n1-2 [IV-25],< 50 nM
5,Cc1sc2c(c1C)C(c1ccc(N3CCC(O)(CN4CCN(c5ccc(C6=C(c7ccc(F)cc7F)CCCc7cc(C(=O)O)ccc76)cc5)CC4)CC3)cc1)=N[C@@H](C)c1nnc(C)n1-2 [IV-26],< 50 nM
6,Cc1sc2c(c1C)C(c1ccc(N3CCC(F)(CN4CCN(c5ccc(C6=C(c7ccc(Cl)cc7Cl)CCCc7cc(C(=O)O)ccc76)cc5)CC4)CC3)cc1)=N[C@@H](C)c1nnc(C)n1-2 [IV-27],50 to 500 nM
7,Cc1sc2c(c1C)C(c1ccc(N3CCC(O)(CN4CCN(c5ccc(C6=C(c7ccccc7)CCCc7cc(C(=O)O)ccc76)c(F)c5)CC4)CC3)cc1)=N[C@@H](C)c1nnc(C)n1-2 [IV-28],< 50 nM
8,Cc1sc2c(c1C)C(c1ccc(N3CC(CC4(O)CCN(CC5CN(c6ccc(C7=C(c8ccccc8)CCCc8cc(C(=O)O)ccc87)cc6)C5)CC4)C3)cc1)=N[C@@H](C)c1nnc(C)n1-2 [IV-29],< 50 nM
9,Cc1sc2c(c1C)C(c1ccc(N3CCC(O)(CN4CCN(c5ccc(C6=C(c7ccc(Cl)cc7Cl)CCCc7cc(C(=O)O)ccc76)cc5)CC4)CC3)cc1)=N[C@H](Cc1ncco1)c1nnc(C)n1-2 [IV-30],500 to 2500 nM

# Tested on: T-Rex 293 cells lacking increased expression of estrogen receptor alpha protein
# Test: Cellular growth inhibition assay, T-Rex 293 cells, (−) doxycycline
# Format: cell-based
# Settings: T-REx-293, 72 h, Table 7-A; T-Rex 293 cells without doxycycline (lacking increased ERα expression); 72 hours; CellTiter-Glo; read-out: (−) Dox GI50
# Method in brief: as §1
row,Structure (SMILES),GI50
1,Cc1sc2c(c1C)C(c1ccc(N3CC(CN4CC(CN5CC(c6ccc(C7=C(c8ccccc8)CCCc8cc(C(=O)O)ccc87)cc6)C5)C4)C3)cc1)=N[C@@H](C)c1nnc(C)n1-2 [IV-22],50 to 500 nM
2,Cc1sc2c(c1C)C(c1ccc(N3CC(CC4CN(CC5CN(c6ccc(C7=C(c8ccccc8)CCCc8cc(C(=O)O)ccc87)cc6)C5)C4)C3)cc1)=N[C@@H](C)c1nnc(C)n1-2 [IV-23],50 to 500 nM
3,Cc1sc2c(c1C)C(c1ccc(N3CC(C[C@H]4CC[C@H](CN5CC(c6ccc(C7=C(c8ccccc8)CCCc8cc(C(=O)O)ccc87)cc6)C5)CC4)C3)cc1)=N[C@@H](C)c1nnc(C)n1-2 [IV-24],500 to 2500 nM
4,Cc1sc2c(c1C)C(c1ccc(N3CC(CN4CCN(CC5CN(c6ccc(C7=C(c8ccc(F)cc8F)CCCc8cc(C(=O)O)ccc87)cc6)C5)CC4)C3)cc1)=N[C@@H](C)c1nnc(C)n1-2 [IV-25],50 to 500 nM
5,Cc1sc2c(c1C)C(c1ccc(N3CCC(O)(CN4CCN(c5ccc(C6=C(c7ccc(F)cc7F)CCCc7cc(C(=O)O)ccc76)cc5)CC4)CC3)cc1)=N[C@@H](C)c1nnc(C)n1-2 [IV-26],500 to 2500 nM
6,Cc1sc2c(c1C)C(c1ccc(N3CCC(F)(CN4CCN(c5ccc(C6=C(c7ccc(Cl)cc7Cl)CCCc7cc(C(=O)O)ccc76)cc5)CC4)CC3)cc1)=N[C@@H](C)c1nnc(C)n1-2 [IV-27],500 to 2500 nM
7,Cc1sc2c(c1C)C(c1ccc(N3CCC(O)(CN4CCN(c5ccc(C6=C(c7ccccc7)CCCc7cc(C(=O)O)ccc76)c(F)c5)CC4)CC3)cc1)=N[C@@H](C)c1nnc(C)n1-2 [IV-28],500 to 2500 nM
8,Cc1sc2c(c1C)C(c1ccc(N3CC(CC4(O)CCN(CC5CN(c6ccc(C7=C(c8ccccc8)CCCc8cc(C(=O)O)ccc87)cc6)C5)CC4)C3)cc1)=N[C@@H](C)c1nnc(C)n1-2 [IV-29],50 to 500 nM
9,Cc1sc2c(c1C)C(c1ccc(N3CCC(O)(CN4CCN(c5ccc(C6=C(c7ccc(Cl)cc7Cl)CCCc7cc(C(=O)O)ccc76)cc5)CC4)CC3)cc1)=N[C@H](Cc1ncco1)c1nnc(C)n1-2 [IV-30],500 to 2500 nM

# Tested on: MCF7 cells (ATCC #HTB-22)
# Test: Cellular growth inhibition assay, MCF7 cells purchased from ATCC
# Format: cell-based
# Settings: Homo sapiens, MCF7, 144 h, Table 8-A; MCF7 cells purchased from ATCC; six days; CellTiter-Glo; read-out: GI50
# Method in brief: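 GI50 values come from a four-parameter fit of CellTiter-Glo 2.0 luminescence after six days of compound exposure at 37° C. Seeding density depended on the source: 225 cells/well for ECACC MCF7, 1,500 for ATCC. Medium was RPMI 1640 with 10% FBS and 0.2 U/ml insulin.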
row,Structure (SMILES),GI50
1,Cc1sc2c(c1C)C(c1ccc(N3CC(CN4CC(CN5CC(c6ccc(C7=C(c8ccccc8)CCCc8cc(C(=O)O)ccc87)cc6)C5)C4)C3)cc1)=N[C@@H](C)c1nnc(C)n1-2 [IV-22],< 50 nM
2,Cc1sc2c(c1C)C(c1ccc(N3CC(CC4CN(CC5CN(c6ccc(C7=C(c8ccccc8)CCCc8cc(C(=O)O)ccc87)cc6)C5)C4)C3)cc1)=N[C@@H](C)c1nnc(C)n1-2 [IV-23],< 50 nM
3,Cc1sc2c(c1C)C(c1ccc(N3CC(C[C@H]4CC[C@H](CN5CC(c6ccc(C7=C(c8ccccc8)CCCc8cc(C(=O)O)ccc87)cc6)C5)CC4)C3)cc1)=N[C@@H](C)c1nnc(C)n1-2 [IV-24],< 50 nM
4,Cc1sc2c(c1C)C(c1ccc(N3CC(CN4CCN(CC5CN(c6ccc(C7=C(c8ccc(F)cc8F)CCCc8cc(C(=O)O)ccc87)cc6)C5)CC4)C3)cc1)=N[C@@H](C)c1nnc(C)n1-2 [IV-25],< 50 nM
5,Cc1sc2c(c1C)C(c1ccc(N3CCC(O)(CN4CCN(c5ccc(C6=C(c7ccc(F)cc7F)CCCc7cc(C(=O)O)ccc76)cc5)CC4)CC3)cc1)=N[C@@H](C)c1nnc(C)n1-2 [IV-26],< 50 nM
6,Cc1sc2c(c1C)C(c1ccc(N3CCC(F)(CN4CCN(c5ccc(C6=C(c7ccc(Cl)cc7Cl)CCCc7cc(C(=O)O)ccc76)cc5)CC4)CC3)cc1)=N[C@@H](C)c1nnc(C)n1-2 [IV-27],50 to 500 nM
7,Cc1sc2c(c1C)C(c1ccc(N3CCC(O)(CN4CCN(c5ccc(C6=C(c7ccccc7)CCCc7cc(C(=O)O)ccc76)c(F)c5)CC4)CC3)cc1)=N[C@@H](C)c1nnc(C)n1-2 [IV-28],< 50 nM
8,Cc1sc2c(c1C)C(c1ccc(N3CC(CC4(O)CCN(CC5CN(c6ccc(C7=C(c8ccccc8)CCCc8cc(C(=O)O)ccc87)cc6)C5)CC4)C3)cc1)=N[C@@H](C)c1nnc(C)n1-2 [IV-29],< 50 nM
9,Cc1sc2c(c1C)C(c1ccc(N3CCC(O)(CN4CCN(c5ccc(C6=C(c7ccc(Cl)cc7Cl)CCCc7cc(C(=O)O)ccc76)cc5)CC4)CC3)cc1)=N[C@H](Cc1ncco1)c1nnc(C)n1-2 [IV-30],50 to 500 nM
